Data: patent publication US20260174823A1 (The Children's Medical Center Corporation, priority 2022, published 2026)
Entries after “also recorded” stand apart in the source; their conditions may differ.

Tests used:
endometriosis lesions = assay: endometriosis lesion size measured with calipers in mouse model; format: in vivo
[1] = test system: murine model for endometriosis pain; assay: endometriosis-associated pain overall (von Frey plus spontaneous pain behaviors) in mouse model; format: in vivo; settings: vs vehicle
Procedure: (§1) After at least one week of acclimatization, donor mice received a subcutaneous injection of 3 μg/mouse estradiol benzoate to stimulate the growth of the endometrium. Seven days later, the uteri of the donor mice were dissected into a Petri dish containing HBSS and split longitudinally with a pair of scissors. Uterine horns from each donor mouse were minced with scissors and scalpel one at the time, ensuring that the maximal diameter of each fragment was consistently smaller than 1 millimeter (mm). Each dissociated uterine horn was then injected intraperitoneally using an 18 G needle into a recipient mouse in 500 μL of HBSS. One donor mouse was used for every two endometriosis mice.
(§2) For mechanical and heat hyperalgesia tests, mice were allowed to habituate to the apparatus for at least 2 hours and during three consecutive days before the beginning of measurements. […] Pain intensity to a mechanical stimulus (mechanical hyperalgesia) in the abdominal region was measured using von Frey filaments. […] The mechanical threshold was determined by the up and down method starting with 0.4 g filament and calculated using the open-source software Up-Down Reader.
For spontaneous abdominal pain measurements, stretching the abdomen (abdominal contortions) and squashing of the lower abdomen against the floor were quantified. […]

[2] = test system: murine model for endometriosis pain; assay: spontaneous pain quantification (abdominal squashing and contortions) in mouse model of endometriosis; format: in vivo
Procedure: as §1
For spontaneous abdominal pain measurements, stretching the abdomen (abdominal contortions) and squashing of the lower abdomen against the floor were quantified. Briefly, for the abdominal contortions, mice were placed in individual chambers in a temperature-controlled (29° C.) glass plate and the number of abdominal contortions was quantified for 10 minutes.
Positive responses consist of a contraction of the abdominal muscle together with stretching of hind limbs. For abdominal squashing, the number of times the mice pressed the lower abdominal region against the floor in five minutes was quantified.
It was therefore tested whether Rimegepant is effective at reducing pain in a murine model (FIG. 1A). Endometriosis lesions were induced in 40 mice and at day 29 post-induction, mice were randomly assigned to treatment with vehicle or Rimegepant at 3, 10, or 30 mg/kg (n=10 mice per group). Treatment was performed daily by oral gavage. Mechanical abdominal pain was determined weekly, 7 to 42 days post implantation (dpi) using von Frey filaments, while abdominal squashing and contortions were determined by counting these pain behaviors. Lesion size was calculated from the mean of two measurements (width and height in mm). […]

[3] = test system: murine model for endometriosis pain; assay: von Frey testing of abdominal mechanical pain in non-surgical mouse model of endometriosis; format: in vivo
Procedure: as §1, §2
It was therefore tested whether Rimegepant is effective at reducing pain in a murine model (FIG. 1A). […] Lesion size was calculated from the mean of two measurements (width and height in mm). […]

[4] = test system: murine model for endometriosis pain; assay: endometriosis-associated pain overall (von Frey plus spontaneous pain behaviors) in mouse model; format: in vivo; settings: 29 to 56 dpi, vs vehicle
[5] = cited from earlier work
peritoneal macrophages = assay: efferocytosis assay: peritoneal macrophages with apoptotic 12z-eGFP cells; format: cell-based, mouse; settings: Rimegepant 100 nM 30 minutes before CGRP 100 nM for 24 hours; apoptotic 12z-eGFP added for 1 hour
Procedure: (§3) Peritoneal cells were collected in FACS buffer from the abdominal cavity of naïve mice. Peritoneal cavity immune cells were seeded in petri dishes in RPMI media and incubated at 37° C. in 5% CO2 for 60 minutes. Non-adherent cells were discarded, and adherent cells (macrophages) were scraped, centrifuged, and counted.
For the efferocytosis assay, macrophages (200,000 cells per well) were plated overnight onto a 96-well plate. Stimulus with CGRP (100 nM) or vehicle was performed for 24 hours. After that, etoposide-induced apoptotic 12z-eGFP were added (600,000 cells per well) to the macrophage culture and incubated for 1 hour. Cells were washed 3 times with DPBS to remove non-engulfed 12z-eGFP and then and fluorescence intensity determined. Treatment with Rimegepant (100 nM) or vehicle was performed 30 minutes before stimulus with CGRP. […]
For the efferocytosis assay, macrophages were plated overnight onto a 96-well plate and stimulus with CGRP (100 nM) or vehicle was performed for 24 h. […] Cells were washed 3 times with DPBS to remove non-engulfed 12z-eGFP and then and fluorescence intensity determined. […] Results shown are expressed as mean±SEM, n=5−12 (one-way ANOVA followed by Tukey's post hoc or Student's t-test, ****P<0.0001, p<0.001, **p<0.02, *p<0.05).

[6] = test system: mouse endometrial epithelial cells (mEECs); assay: mEEC proliferation assay in transwell co-culture with peritoneal macrophages (CyQuant); format: cell-based; settings: Rimegepant 100 nM 30 minutes before CGRP 100 nM for 24 hours
Procedure: as §3
For experiments involving mouse epithelial endometrial cell (mEEC) proliferation, macrophages were plated (100,000 cells per well) onto tissue culture insert and left overnight with 20,000 mEEC plated on the bottom of the well. Stimulus with CGRP (100 nM) or vehicle was performed for 24 hours and then mEEC were used to determine for cell proliferation assay using CyQuant™ kit (Thermo Fisher Scientific #C7026). Treatment with Rimegepant (100 nM) or vehicle was performed 30 minutes before stimulus with CGRP.
In this experiment, peritoneal macrophages were plated on a cell culture insert and co-cultured with a mouse epithelial endometrial cell line (mEEC) in a 24-well plate. Cell growth was assessed using the CyQuant™ kit and quantification performed in a spectrophotometer (n=8 well per group).
Macrophages were plated onto tissue culture insert with mEEC plated on the bottom of the well. […] Results shown are expressed as mean±SEM, n=5−12 (one-way ANOVA followed by Tukey's post hoc or Student's t-test, ****P<0.0001, p<0.001, **p<0.02, *p<0.05).

[7] = nociceptor ablation in RTX-treated lesion-bearing mice
[8] = Rimegepant 3, 10 or 30 mg/kg daily by oral gavage, 29 to 42 dpi, vs vehicle

For `CC[N+](CC)(CC)CC(=O)Nc1c(C)cccc1C` [QX-314], the lesion size (endometriosis lesions; QX-314 0.1 or 1 mg/kg daily i.p., 29 to 35 dpi, vs vehicle) was “reduced lesion size; also recorded: reduces” and the endometriosis-associated pain ([1]; QX-314 0.1 or 1 mg/kg daily i.p., 29 to 35 dpi) was “reduced endometriosis-associated pain; also recorded: reduces”.

In the case of `C=C(C)[C@]12C[C@@H](C)[C@@]34O[C@](Cc5ccccc5)(O[C@@H]1[C@@H]3C=C(COC(=O)Cc1ccc(O)c(OC)c1)C[C@]1(O)C(=O)C(C)=C[C@@H]41)O2` [RTX, resiniferatoxin toxin], the spontaneous pain behaviors [2, 7] is reported as “reduced”, the lesion size (endometriosis lesions; [7]) is reported as “reduced” and the evoked pain [3, 7] is reported as “reduced”.

For `C[C@@H]1[C@H](c2ccccc2)C[C@H](NC(=O)c2cnc3c(c2)C[C@@]2(C3)C(=O)Nc3ncccc32)C(=O)N1CC(F)(F)F` [Ubrogepant], the endometriosis-associated pain ([4]; Ubrogepant 50 mg/kg daily per oral gavage) was “significant reduction”, the endometriosis-associated pain ([4]; Ubrogepant 50 mg/kg daily per oral gavage, listed as Ubrogevant) was “reduce” and the lesion size (endometriosis lesions; Ubrogepant 50 mg/kg daily per oral gavage, 29 to 56 dpi, vs vehicle) was “significantly smaller”. The lesion size (endometriosis lesions; Ubrogepant 50 mg/kg daily per oral gavage, 29 to 56 dpi, vs vehicle, listed as Ubrogevant) was “reduce”.

For `N[C@@H]1c2cccnc2[C@H](OC(=O)N2CCC(n3c(=O)[nH]c4ncccc43)CC2)CC[C@H]1c1cccc(F)c1F` [Rimegepant], the “preclinical safety profile upon chronic treatment” value ([5]; chronic treatment (26 weeks)) is given as “safe preclinical profile”, the “adverse effects on fertility” value ([5]; doses as high as 60 mg/kg) is given as “no adverse effects on fertility” and the “number of abdominal contortion” value [2, 8] is given as “reduced”. The “number of abdominal squashing” value [2, 8] was “reduced”, the lesion size (endometriosis lesions; [8]) was “reduced lesion size; also recorded: reduces” and the “efferocytosis activity of CGRP-stimulated macrophages (eGFP fluorescence intensity)” value (peritoneal macrophages) was “rescued; also recorded: restores normal levels of efferocytosis”. For the same molecule, the “growth (proliferation) of mEEC promoted by CGRP-stimulated macrophages” value [6] was “inhibited; also recorded: reduces mEEC proliferation”, the endometriosis-associated pain ([1]; Rimegepant 3, 10 or 30 mg/kg daily by oral gavage, 29 to 42 dpi) was “reduces endometriosis-associated pain” and the “abdominal mechanical threshold to the von Frey fibers” value [3, 8] was “increased”.

B1: Fremanezumab (antibody, chains of the INN, looked up, V domains shown)
VH: EVQLVESGGGLVQPGGSLRLSCAASGFTFSNYWISWVRQAPGKGLEWVAEIRSESDASATHYAEAVKGRFTISRDNAKNSLYLQMNSLRAEDTAVYYCLAYFDYGLAIQNYWGQGTLVTVSS
VL: EIVLTQSPATLSLSPGERATLSCKASKRVTTYVSWYQQKPGQAPRLLIYGASNRYLGIPARFSGSGSGTDFTLTISSLEPEDFAVYYCSQSYNYPYTFGQGTKLEIK
notes: a monoclonal antibody antagonist of CGRP
For B1, the endometriosis-associated pain ([4]; Fremanezumab 100 mg/kg subcutaneous injection) was “significant reduction; also recorded: reduce” and the lesion size (endometriosis lesions; Fremanezumab 100 mg/kg subcutaneous injection, 29 to 56 dpi, vs vehicle) was “significantly smaller; also recorded: reduce”.

B2: Galcanezumab (antibody, chains of the INN, looked up, V domains shown)
VH: QVQLVQSGAEVKKPGSSVKVSCKASGYTFGNYWMQWVRQAPGQGLEWMGAIYEGTGKTVYIQKFADRVTITADKSTSTAYMELSSLRSEDTAVYYCARLSDYVSGFGYWGQGTTVTVSS
VL: DIQMTQSPSSLSASVGDRVTITCRASKDISKYLNWYQQKPGKAPKLLIYYTSGYHSGVPSRFSGSGSGTDFTLTISSLQPEDFATYYCQQGDALPPTFGGGTKVEIK
notes: a second monoclonal antibody antagonist of CGRP
With B2 the endometriosis-associated pain ([4]; Galcanezumab 4 mg/kg subcutaneous injection) was “significant reduction; also recorded: reduce” and the lesion size (endometriosis lesions; Galcanezumab 4 mg/kg subcutaneous injection, 29 to 56 dpi, vs vehicle) was “reduce”.
